Test results from patent US6914045B2, “Glycopeptide antibiotics” (Wyeth Holdings Corporation, priority 2001, dated 2005).
Converted amounts (≈) assume the structure as drawn.

Key:
Experiment in all cases: in vitro antibacterial evaluation, MIC by broth dilution
Format in all cases: cell-based
Enterococcus sp. = conditions: broth dilution, 18 hours at 35° C.; for MIC Enterococcus faecalis (ATCC 29212): strain ATCC 29212; for MIC Enterococcus faecalis (GC 2242): strain GC 2242; for MIC Enterococcus faecium (GC 2243): strain GC 2243; for MIC Enterococcus faecalis (GC 2691): strain GC 2691; for MIC Enterococcus faecalis (GC 3059): strain GC 3059; for MIC Enterococcus faecalis (GC 4552): strain GC 4552; for MIC Enterococcus faecalis (GC 4553): strain GC 4553; for MIC Enterococcus faecalis (GC 4554): strain GC 4554; for MIC Enterococcus faecium (GC 4556): strain GC 4556; for MIC Enterococcus faecium (GC 4557): strain GC 4557; for MIC Enterococcus avium (GC 4558): strain GC 4558; for MIC Enterococcus faecalis (GC 6189): strain GC 6189
Outline: (§1)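 Inoculum 5×10^5 CFU/mL; concentrations 64 to 0.06 μg/mL; MIC defined as lowest inhibitory level. Conducted by broth dilution under NCCLS guidelines.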

Escherichia coli = system: Escherichia coli
Outline: as §1

Staphylococcus sp. = conditions: broth dilution, 18 hours at 35° C.; for MIC Staphylococcus aureus (GC 1131): strain GC 1131
Outline: as §1

Streptococcus sp. = conditions: broth dilution, 18 hours at 35° C.; for MIC Streptococcus pneumoniae (ATCC 6301): strain ATCC 6301; for MIC Streptococcus pneumoniae (GC 1894): strain GC 1894; for MIC Streptococcus pyogenes (GC 4563): strain GC 4563; for MIC Streptococcus agalactiae (GC 4564): strain GC 4564; for MIC Streptococcus pneumoniae (GC 4565): strain GC 4565
Outline: as §1

Q: What does the source list for `CC(c1ccccc1)C1NC(=O)CNC(=O)C(CO)NC(=O)C(C(O)C2CNC(=N)N2C2OC(CO)C(O)C(O)C2O)NC(=O)C(C(O)C2CNC(=N)N2)NC(=O)C(Cc2ccc(OC3OC(CO)C(OC4OC5COC(c6cccc(Oc7ccccc7)c6)OC5C(O)C4O)C(O)C3O)cc2)NC1=O` (centres unmarked) [Example 170]?
A: MIC Enterococcus faecalis (ATCC 29212) (Enterococcus sp.; inoculum 5×10^5 CFU/mL): 4 µg/mL (≈ 2.71 µM); MIC Enterococcus faecalis (GC 2242) (Enterococcus sp.; inoculum 5×10^5 CFU/mL): 4 µg/mL (≈ 2.71 µM); MIC Enterococcus faecium (GC 2243) (Enterococcus sp.; inoculum 5×10^5 CFU/mL): 4 µg/mL (≈ 2.71 µM); MIC Enterococcus faecalis (GC 2691) (Enterococcus sp.; inoculum 5×10^5 CFU/mL): 4 µg/mL (≈ 2.71 µM); MIC Enterococcus faecalis (GC 3059) (Enterococcus sp.; inoculum 5×10^5 CFU/mL): 4 µg/mL (≈ 2.71 µM); MIC Enterococcus faecalis (GC 4552) (Enterococcus sp.; inoculum 5×10^5 CFU/mL): 4 µg/mL (≈ 2.71 µM); MIC Enterococcus faecalis (GC 4553) (Enterococcus sp.; inoculum 5×10^5 CFU/mL): 4 µg/mL (≈ 2.71 µM); MIC Enterococcus faecalis (GC 4554) (Enterococcus sp.; inoculum 5×10^5 CFU/mL): 2 µg/mL (≈ 1.36 µM); MIC Enterococcus faecium (GC 4556) (Enterococcus sp.; inoculum 5×10^5 CFU/mL): 4 µg/mL (≈ 2.71 µM); MIC Enterococcus faecium (GC 4557) (Enterococcus sp.; inoculum 5×10^5 CFU/mL): 4 µg/mL (≈ 2.71 µM); MIC Enterococcus avium (GC 4558) (Enterococcus sp.; inoculum 5×10^5 CFU/mL): 4 µg/mL (≈ 2.71 µM); MIC Enterococcus faecalis (GC 6189) (Enterococcus sp.; inoculum 5×10^5 CFU/mL): 4 µg/mL (≈ 2.71 µM); MIC Enterococcus faecalis (ATCC 29212) (Enterococcus sp.): 4 µg/mL (≈ 2.71 µM); MIC Enterococcus faecalis (GC 2242) (Enterococcus sp.): 4 µg/mL (≈ 2.71 µM); MIC Enterococcus faecium (GC 2243) (Enterococcus sp.): 4 µg/mL (≈ 2.71 µM); MIC Enterococcus faecalis (GC 2691) (Enterococcus sp.): 4 µg/mL (≈ 2.71 µM); MIC Enterococcus faecalis (GC 3059) (Enterococcus sp.): 4 µg/mL (≈ 2.71 µM); MIC Enterococcus faecalis (GC 4552) (Enterococcus sp.): 4 µg/mL (≈ 2.71 µM); MIC Enterococcus faecalis (GC 4553) (Enterococcus sp.): 4 µg/mL (≈ 2.71 µM); MIC Enterococcus faecalis (GC 4554) (Enterococcus sp.): 2 µg/mL (≈ 1.36 µM); MIC Enterococcus faecium (GC 4556) (Enterococcus sp.): 4 µg/mL (≈ 2.71 µM); MIC Enterococcus faecium (GC 4557) (Enterococcus sp.): 4 µg/mL (≈ 2.71 µM); MIC Enterococcus avium (GC 4558) (Enterococcus sp.): 4 µg/mL (≈ 2.71 µM); MIC Enterococcus faecalis (GC 6189) (Enterococcus sp.): 4 µg/mL (≈ 2.71 µM); MIC Escherichia coli (ATCC 25922) (Escherichia coli; strain ATCC 25922, 18 hours at 35° C.): >64 µg/mL; MIC Escherichia coli (GC 4559) (Escherichia coli; strain GC 4559, 18 hours at 35° C.): >64 µg/mL; MIC Escherichia coli (GC 4560) (Escherichia coli; strain GC 4560, 18 hours at 35° C.): 4 µg/mL (≈ 2.71 µM); MIC Staphylococcus aureus (GC 1131) (Staphylococcus sp.; inoculum 5×10^5 CFU/mL): 4 µg/mL (≈ 2.71 µM); MIC Staphylococcus aureus (ATCC 29213) (Staphylococcus sp.; strain ATCC 29213): 4 µg/mL (≈ 2.71 µM); MIC Staphylococcus aureus (GC 1131) (Staphylococcus sp.): 4 µg/mL (≈ 2.71 µM); MIC Staphylococcus aureus (GC 3051) (Staphylococcus sp.; strain GC 3051): 4 µg/mL (≈ 2.71 µM); MIC Staphylococcus aureus (GC 3053) (Staphylococcus sp.; strain GC 3053): 1 µg/mL (≈ 0.678 µM); MIC Staphylococcus aureus (GC 4541) (Staphylococcus sp.; strain GC 4541): 2 µg/mL (≈ 1.36 µM); MIC Staphylococcus aureus (GC 4542) (Staphylococcus sp.; strain GC 4542): 4 µg/mL (≈ 2.71 µM); MIC Staphylococcus aureus-SMITH (GC 4543) (Staphylococcus sp.; strain GC 4543): 4 µg/mL (≈ 2.71 µM); MIC Staphylococcus aureus (GC 4544) (Staphylococcus sp.; strain GC 4544): 2 µg/mL (≈ 1.36 µM); MIC Staphylococcus aureus (GC 4545) (Staphylococcus sp.; strain GC 4545): 4 µg/mL (≈ 2.71 µM); MIC Staphylococcus haemolyticus (GC 4546) (Staphylococcus sp.; strain GC 4546): 8 µg/mL (≈ 5.42 µM); MIC Coagulase Negative Staphylococcus (GC 4547) (Staphylococcus sp.; strain GC 4547): 4 µg/mL (≈ 2.71 µM); MIC Coagulase Negative Staphylococcus (GC 4548) (Staphylococcus sp.; strain GC 4548): 1 µg/mL (≈ 0.678 µM); MIC Coagulase Negative Staphylococcus (GC 4549) (Staphylococcus sp.; strain GC 4549): 2 µg/mL (≈ 1.36 µM); MIC Coagulase Negative Staphylococcus (GC 4551) (Staphylococcus sp.; strain GC 4551): 1 µg/mL (≈ 0.678 µM); MIC Coagulase Negative Staphylococcus (GC 6257) (Staphylococcus sp.; strain GC 6257): 1 µg/mL (≈ 0.678 µM); MIC Streptococcus pneumoniae (ATCC 6301) (Streptococcus sp.; inoculum 5×10^5 CFU/mL): <0.06 µg/mL; MIC Streptococcus pneumoniae (GC 1894) (Streptococcus sp.; inoculum 5×10^5 CFU/mL): <0.06 µg/mL; MIC Streptococcus pyogenes (GC 4563) (Streptococcus sp.; inoculum 5×10^5 CFU/mL): <0.06 µg/mL; MIC Streptococcus agalactiae (GC 4564) (Streptococcus sp.; inoculum 5×10^5 CFU/mL): <0.06 µg/mL; MIC Streptococcus pneumoniae (GC 4565) (Streptococcus sp.; inoculum 5×10^5 CFU/mL): <0.06 µg/mL; MIC Streptococcus pneumoniae (ATCC 6301) (Streptococcus sp.): <0.06 µg/mL; MIC Streptococcus pneumoniae (GC 1894) (Streptococcus sp.): <0.06 µg/mL; MIC Streptococcus pyogenes (GC 4563) (Streptococcus sp.): <0.06 µg/mL; MIC Streptococcus agalactiae (GC 4564) (Streptococcus sp.): <0.06 µg/mL; MIC Streptococcus pneumoniae (GC 4565) (Streptococcus sp.): <0.06 µg/mL
